A word on the IC50: it is the concentration that gives 50% inhibition. What is called EC50 is the midpoint of the concentration-response curve.

We go through 8 compounds from patent publication US20180273579A1, “COMPOUNDS WITH HIV MATURATION INHIBITORY ACTIVITY” (priority 2015, published 2018).

Structures can show the parent of a compound that is named as a salt.

The test system of experiment [1] is HIV-1 (strain IIIB). In words: MT4 Cell Antiviral Assay (general statement, control). Format: cell-based. Particulars: Human immunodeficiency virus 1, IIIB, control and standard in every assay, propidium iodide readout, read-out: expected range of IC50 values. How it is done: Antiviral HIV activity and compound-induced cytotoxicity were measured in parallel by means of a propidium iodide based procedure in the human T-cell lymphotropic virus transformed cell line MT4. Aliquots of the test compounds were serially diluted in medium (RPMI 1640, 10% fetal calf serum (FCS), and gentamycin) in 96-well plates (Costar 3598) using a Cetus Pro/Pette. Exponentially growing MT4 cells were harvested and centrifuged at 1000 rpm for 10 min in a Jouan centrifuge (model CR 4 12). Cell pellets were resuspended in fresh medium (RPMI 1640, 20% FCS, 20% IL-2, and gentamycin) to a density of 5×10^5 cells/ml. […]
For propidium iodide readout, 27 μl of 5% Nonidet-40 was added to each well of the incubation plate. […] The plates were analyzed in an automated assay instrument (Screen Machine, Idexx Laboratories). […]
For MTS readout, 20 μl CellTiter 96 AQ One Solution reagent (Promega #G3582) was added to each well. At 75 minutes following the addition of MTS reagent, absobance was read at 492 nm using a Tecan Sunrise 96-well plate reader. […]
For each assay plate, the results (relative fluorescence units, rfU, or OD values) of wells containing uninfected cells or infected cells with no compound were averaged, respectively. […] Percent of cells remaining is determined by the following formula: […]

Experiment [2] deals with HIV. Particulars: cited from earlier work.
Experiment [3] concerns V370A. In words: MT4 Cell Antiviral Assay (V370A). Format: cell-based, HIV-1. Particulars: Human immunodeficiency virus 1, MT4, read-out: EC50 V370A (nM).
The test system of experiment [4] is NL4-3 wt. As to the kind of experiment: MT4 Cell Antiviral Assay (NL4-3 wt). Format: cell-based, HIV-1. Particulars: Human immunodeficiency virus 1, NL43, HIV MT4 Antiviral Cell Assay.

For the compound `Cc1cn([C@H]2C[C@H](N=[N+]=[N-])[C@@H](CO)O2)c(=O)[nH]c1=O` [3′-azido-3′-deoxythymidine], the IC50 in experiment [1] is 40 to 120 nM.
Regarding `C=C(C)[C@@H]1CC[C@]2(C(=O)O)CC[C@]3(C)[C@H](CC[C@@H]4[C@@]5(C)CC[C@H](OC(=O)CC(C)(C)C(=O)O)C(C)(C)[C@@H]5CC[C@]43C)[C@@H]12` [Bevirimat], the “reduced HIV viral load, mean” value in experiment [2] (patients with trough levels >=20 μg/mL and without key baseline Gag polymorphisms at Q369, V370 or T371) is 1.3 log10/mL. The viral load reduction result in experiment [2] (users with Gag polymorphisms at Q369, V370 or T371, versus patients without them) is listed as “significantly lower load reductions”.
As for `CC(C)C1=C2[C@H]3CC[C@@H]4[C@@]5(C)CC=C(C6=CCC(C(=O)O)CC6)C(C)(C)[C@@H]5CC[C@@]4(C)[C@]3(C)CC[C@@]2(C(=O)NCCN2CCC(S(C)(=O)=O)CC2)CC1=O` (stereo partly drawn) [Example 1, 4-((3aR,5aR,5bR,7aR,11aS,11bR,13aS)-1-Isopropyl-5a,5b,8,8,11a-pentamethyl-3a-((2-(4-(methylsulfonyl)piperidin-1-yl)ethyl)carbamoyl)-2-oxo-3,3a,4,5,5a,5b,6,7,7a,8,11,11a,11b,12,13,13a-hexadecahydro-2H-cyclopenta[a]chrysen-9-yl)cyclohex-3-enecarboxylic acid], the EC50 is over 25000 nM in experiment [3] and over 23900 nM in experiment [4].
For `CC(C)C1=C2[C@H]3CC[C@@H]4[C@@]5(C)CC=C(C6=CCC(C(=O)O)CC6)C(C)(C)[C@@H]5CC[C@@]4(C)[C@]3(C)CC[C@@]2(C(=O)NCCN2CCS(=O)(=O)CC2)CC1=O` (stereo partly drawn) [Example 2, 4-((3aR,5aR,5bR,7aR,11aS,11bR,13aS)-3a-((2-(1,1-Dioxidothiomorpholino)ethyl)carbamoyl)-1-isopropyl-5a,5b,8,8,11a-pentamethyl-2-oxo-3,3a,4,5,5a,5b,6,7,7a,8,11,11a,11b,12,13,13a-hexadecahydro-2H-cyclopenta[a]chrysen-9-yl)cyclohex-3-enecarboxylic acid] the same measures were over 25000 nM and 3390 nM.
As to `CC(C)C1=C2[C@H]3CC[C@@H]4[C@@]5(C)CC=C(C6=CCC(C(=O)O)CC6)C(C)(C)[C@@H]5CC[C@@]4(C)[C@]3(C)CC[C@@]2(C(=O)N(CCN(C)C)[C@H](C)c2ccc(Cl)cc2)CC1=O` (stereo partly drawn) [Example 5, 4-((3aR,5aR,5bR,7aR,11aS,11bR,13aS)-3a-(((R)-1-(4-Chlorophenyl)ethyl) (2-(dimethylamino)ethyl)carbamoyl)-1-isopropyl-5a,5b,8,8,11a-pentamethyl-2-oxo-3,3a,4,5,5a,5b,6,7,7a,8,11,11a,11b,12,13,13a-hexadecahydro-2H-cyclopenta[a]chrysen-9-yl)cyclohex-3-enecarboxylic acid], the results for the EC50 in experiment [3] and in experiment [4] were 9.5 nM and 7.6 nM, respectively.
Turning to `CC(C)C1=C2[C@H]3CC[C@@H]4[C@@]5(C)CC=C(C6=CCC(C(=O)O)CC6)C(C)(C)[C@@H]5CC[C@@]4(C)[C@]3(C)CC[C@@]2(C(=O)N(CCN(C)C)Cc2ccc(Cl)cc2)CC1=O` (stereo partly drawn) [Example 6, 4-((3aR,5aR,5bR,7aR,11aS,11bR,13aS)-3a-((4-Chlorobenzyl) (2-(dimethylamino)ethyl)carbamoyl)-1-isopropyl-5a,5b,8,8,11a-pentamethyl-2-oxo-3,3a,4,5,5a,5b,6,7,7a,8,11,11a,11b,12,13,13a-hexadecahydro-2H-cyclopenta[a]chrysen-9-yl)cyclohex-3-enecarboxylic acid], the EC50 was 14.1 nM in experiment [3] and 11.2 nM in experiment [4].
The matching figures for `CC(C)C1=C2[C@H]3CC[C@@H]4[C@@]5(C)CC=C(c6ccc(C(=O)O)cc6)C(C)(C)[C@@H]5CC[C@@]4(C)[C@]3(C)CC[C@@]2(C(=O)N(CCN(C)C)[C@H](C)c2ccc(Cl)cc2)CC1=O` [Example 7, 4-((3aR,5aR,5bR,7aR,11aS,11bR,13aS)-3a-(((R)-1-(4-Chlorophenyl)ethyl) (2-(dimethylamino)ethyl)carbamoyl)-1-isopropyl-5a,5b,8,8,11a-pentamethyl-2-oxo-3,3a,4,5,5a,5b,6,7,7a,8,11,11a,11b,12,13,13a-hexadecahydro-2H-cyclopenta[a]chrysen-9-yl)benzoic acid hydrochloride]: 8.9 nM and 8.5 nM.
For `CC(C)C1=C2[C@H]3CC[C@@H]4[C@@]5(C)CC=C(c6ccc(C(=O)O)cc6)C(C)(C)[C@@H]5CC[C@@]4(C)[C@]3(C)CC[C@@]2(C(=O)N(CCN(C)C)Cc2ccc(Cl)cc2)CC1=O` [Example 8, 4-((3aR,5aR,5bR,7aR,11aS,11bR,13aS)-3a-((4-Chlorobenzyl) (2-(dimethylamino)ethyl)carbamoyl)-1-isopropyl-5a,5b,8,8,11a-pentamethyl-2-oxo-3,3a,4,5,5a,5b,6,7,7a,8,11,11a,11b,12,13,13a-hexadecahydro-2H-cyclopenta[a]chrysen-9-yl)benzoic acid hydrochloride] the same measures were 64.6 nM and 28.8 nM.
